In PubChem BioAssay AID1259407 (Chemical Carcinogenesis Research Information System (CCRIS), 2018):
Active and inactive are the calls of the source. No rule for the calls is given here.

Tested on: CCRIS mutagenicity, Ames/micronucleus/aberration tests
Test: CCRIS mutagenicity studies
[1] = Test System: AMES SALMONELLA TYPHIMURIUM, Strain/Indicator: TA98, Metabolic Activation: NONE, Method: STANDARD PLATE
[2] = Test System: AMES SALMONELLA TYPHIMURIUM, Strain/Indicator: TA100, Metabolic Activation: NONE, Method: STANDARD PLATE
[3] = Test System: AMES SALMONELLA TYPHIMURIUM, Strain/Indicator: TA98, Metabolic Activation: NONE, Method: PREINCUBATION
[4] = Test System: AMES SALMONELLA TYPHIMURIUM, Strain/Indicator: TA100, Metabolic Activation: NONE, Method: PREINCUBATION

Structure (SMILES): O=C(O)c1cn(C2CC2)c2c(Cl)c(N3C[C@@H]4CCCN[C@@H]4C3)c(F)cc2c1=O
- mutagenic call (Test System: CHINESE HAMSTER V-79, Strain/Indicator: V-79 (HGPRT)/6-THIOGUANINE, Metabolic Activation: NONE, Method: STANDARD PLATE): active; positive
- mutagenic call (Test System: CHINESE HAMSTER, Strain/Indicator: V-79(HPRT)/6-THIOGUANINE, Metabolic Activation: NONE, Method: SUSPENSION/PLATE): active; positive

Structure (SMILES): Fc1cnc2c(ccc3ccccc32)c1
- mutagenic call (Test System: AMES SALMONELLA TYPHIMURIUM, Strain/Indicator: TA100, Metabolic Activation: RAT, LIVER, S-9, PHENOBARBITAL AND 5,6-BENZOFLAVONE, Method: PREINCUBATION): inactive; negative

Structure (SMILES): Cc1ccc(N=Nc2c(O)ccc3ccccc23)cc1C
- mutagenic call [1]: inactive; negative
- mutagenic call (Test System: AMES SALMONELLA TYPHIMURIUM, Strain/Indicator: TA98, Metabolic Activation: RAT, LIVER, S-9, Method: STANDARD PLATE): inactive; negative
- mutagenic call [2]: inactive; negative
- mutagenic call (Test System: AMES SALMONELLA TYPHIMURIUM, Strain/Indicator: TA100, Metabolic Activation: RAT, LIVER, S-9, Method: STANDARD PLATE): inactive; negative

Structure (SMILES): [Cl][Pt-2]([Cl])([Cl])([Cl])([Cl])[Cl]
- mutagenic call (Test System: AMES SALMONELLA TYPHIMURIUM, Strain/Indicator: TA97A, Metabolic Activation: RAT, LIVER, S-9, PHENOBARBITAL AND 5,6-BENZOFLAVONE, Method: STANDARD PLATE): active; positive
- mutagenic call (Test System: AMES SALMONELLA TYPHIMURIUM, Strain/Indicator: TA97A, Metabolic Activation: RAT, LIVER, S-9, PHENOBARBITAL AND BETA-NAPHTHOFLAVONE, Method: STANDARD PLATE): active; positive
- mutagenic call [3]: inactive; negative
- mutagenic call [1]: active; positive
- mutagenic call (Test System: AMES SALMONELLA TYPHIMURIUM, Strain/Indicator: TA98, Metabolic Activation: RAT, LIVER, S-9, AROCLOR 1254, Method: PREINCUBATION): active; positive
- mutagenic call (Test System: AMES SALMONELLA TYPHIMURIUM, Strain/Indicator: TA98, Metabolic Activation: RAT, LIVER, S-9, PHENOBARBITAL AND 5,6-BENZOFLAVONE, Method: STANDARD PLATE): active; positive
- mutagenic call (Test System: AMES SALMONELLA TYPHIMURIUM, Strain/Indicator: TA98, Metabolic Activation: RAT, LIVER, S-9, PHENOBARBITAL AND BETA-NAPHTHOFLAVONE, Method: STANDARD PLATE): active; positive
- mutagenic call [4]: inactive; negative
- mutagenic call [2]: active; positive
- mutagenic call (Test System: AMES SALMONELLA TYPHIMURIUM, Strain/Indicator: TA100, Metabolic Activation: RAT, LIVER, S-9, AROCLOR 1254, Method: PREINCUBATION): inactive; negative
- mutagenic call (Test System: AMES SALMONELLA TYPHIMURIUM, Strain/Indicator: TA100, Metabolic Activation: RAT, LIVER, S-9, PHENOBARBITAL AND 5,6-BENZOFLAVONE, Method: STANDARD PLATE): active; positive
- mutagenic call (Test System: AMES SALMONELLA TYPHIMURIUM, Strain/Indicator: TA100, Metabolic Activation: RAT, LIVER, S-9, PHENOBARBITAL AND BETA-NAPHTHOFLAVONE, Method: STANDARD PLATE): active; positive
- mutagenic call (Test System: AMES SALMONELLA TYPHIMURIUM, Strain/Indicator: TA102, Metabolic Activation: NONE, Method: STANDARD PLATE): active; positive
- mutagenic call (Test System: AMES SALMONELLA TYPHIMURIUM, Strain/Indicator: TA102, Metabolic Activation: RAT, LIVER, S-9, PHENOBARBITAL AND 5,6-BENZOFLAVONE, Method: STANDARD PLATE): active; positive
- mutagenic call (Test System: AMES SALMONELLA TYPHIMURIUM, Strain/Indicator: TA102, Metabolic Activation: RAT, LIVER, S-9, PHENOBARBITAL AND BETA-NAPHTHOFLAVONE, Method: STANDARD PLATE): active; positive

Structure (SMILES): O=NC1=Cc2nc3ccccn3c2NC1
- mutagenic call [1]: active; positive
- mutagenic call (Test System: AMES SALMONELLA TYPHIMURIUM, Strain/Indicator: TA98, Metabolic Activation: RAT, LIVER, CYTOSOL, AROCLOR 1254, Method: STANDARD PLATE): active; positive
- mutagenic call (Test System: AMES SALMONELLA TYPHIMURIUM, Strain/Indicator: TA98, Metabolic Activation: RAT, LIVER, MICROSOMES, AROCLOR 1254, Method: STANDARD PLATE): inactive; negative
- mutagenic call (Test System: AMES SALMONELLA TYPHIMURIUM, Strain/Indicator: TA98, Metabolic Activation: RAT, LIVER, S-9, AROCLOR 1254, Method: STANDARD PLATE): active; positive

Structure (SMILES): CCN(C(=O)N(CC)c1ccccc1)c1ccccc1
- mutagenic call (Test System: AMES SALMONELLA TYPHIMURIUM, Strain/Indicator: TA97, Metabolic Activation: HAMSTER, LIVER, S-9, AROCLOR 1254 (10%), Method: PREINCUBATION): inactive; negative
- mutagenic call (Test System: AMES SALMONELLA TYPHIMURIUM, Strain/Indicator: TA97, Metabolic Activation: HAMSTER, LIVER, S-9, AROCLOR 1254 (30%), Method: PREINCUBATION): inactive; negative
- mutagenic call (Test System: AMES SALMONELLA TYPHIMURIUM, Strain/Indicator: TA97, Metabolic Activation: NONE, Method: PREINCUBATION): inactive; negative
- mutagenic call (Test System: AMES SALMONELLA TYPHIMURIUM, Strain/Indicator: TA97, Metabolic Activation: RAT, LIVER, S-9, AROCLOR 1254 (10%), Method: PREINCUBATION): inactive; negative
- mutagenic call (Test System: AMES SALMONELLA TYPHIMURIUM, Strain/Indicator: TA97, Metabolic Activation: RAT, LIVER, S-9, AROCLOR 1254 (30%), Method: PREINCUBATION): inactive; negative
- mutagenic call (Test System: AMES SALMONELLA TYPHIMURIUM, Strain/Indicator: TA98, Metabolic Activation: HAMSTER, LIVER, S-9, AROCLOR 1254 (10%), Method: PREINCUBATION): inactive; negative
- mutagenic call (Test System: AMES SALMONELLA TYPHIMURIUM, Strain/Indicator: TA98, Metabolic Activation: HAMSTER, LIVER, S-9, AROCLOR 1254 (30%), Method: PREINCUBATION): inactive; negative
- mutagenic call [3]: inactive; negative
- mutagenic call (Test System: AMES SALMONELLA TYPHIMURIUM, Strain/Indicator: TA98, Metabolic Activation: RAT, LIVER, S-9, AROCLOR 1254 (10%), Method: PREINCUBATION): inactive; negative
- mutagenic call (Test System: AMES SALMONELLA TYPHIMURIUM, Strain/Indicator: TA98, Metabolic Activation: RAT, LIVER, S-9, AROCLOR 1254 (30%), Method: PREINCUBATION): inactive; negative
- mutagenic call (Test System: AMES SALMONELLA TYPHIMURIUM, Strain/Indicator: TA100, Metabolic Activation: HAMSTER, LIVER, S-9, AROCLOR 1254 (10%), Method: PREINCUBATION): inactive; negative
- mutagenic call (Test System: AMES SALMONELLA TYPHIMURIUM, Strain/Indicator: TA100, Metabolic Activation: HAMSTER, LIVER, S-9, AROCLOR 1254 (30%), Method: PREINCUBATION): inactive; negative
- mutagenic call [4]: inactive; negative
- mutagenic call (Test System: AMES SALMONELLA TYPHIMURIUM, Strain/Indicator: TA100, Metabolic Activation: RAT, LIVER, S-9, AROCLOR 1254 (10%), Method: PREINCUBATION): inactive; negative
- mutagenic call (Test System: AMES SALMONELLA TYPHIMURIUM, Strain/Indicator: TA100, Metabolic Activation: RAT, LIVER, S-9, AROCLOR 1254 (30%), Method: PREINCUBATION): inactive; negative
- mutagenic call (Test System: AMES SALMONELLA TYPHIMURIUM, Strain/Indicator: TA1535, Metabolic Activation: HAMSTER, LIVER, S-9, AROCLOR 1254 (10%), Method: PREINCUBATION): inactive; negative
- mutagenic call (Test System: AMES SALMONELLA TYPHIMURIUM, Strain/Indicator: TA1535, Metabolic Activation: HAMSTER, LIVER, S-9, AROCLOR 1254 (30%), Method: PREINCUBATION): inactive; negative
- mutagenic call (Test System: AMES SALMONELLA TYPHIMURIUM, Strain/Indicator: TA1535, Metabolic Activation: NONE, Method: PREINCUBATION): inactive; negative
- mutagenic call (Test System: AMES SALMONELLA TYPHIMURIUM, Strain/Indicator: TA1535, Metabolic Activation: RAT, LIVER, S-9, AROCLOR 1254 (10%), Method: PREINCUBATION): inactive; negative
- mutagenic call (Test System: AMES SALMONELLA TYPHIMURIUM, Strain/Indicator: TA1535, Metabolic Activation: RAT, LIVER, S-9, AROCLOR 1254 (30%), Method: PREINCUBATION): inactive; negative

Structure (SMILES): CN(C)c1ccc(N=Nc2ccc(C=O)cc2)cc1
- mutagenic call (Test System: AMES SALMONELLA TYPHIMURIUM, Strain/Indicator: TA98, Metabolic Activation: RAT, LIVER, S-9, POLYCHLORINATED BIPHENYLS, Method: PREINCUBATION): active; positive
- mutagenic call (Test System: AMES SALMONELLA TYPHIMURIUM, Strain/Indicator: TA100, Metabolic Activation: RAT, LIVER, S-9, POLYCHLORINATED BIPHENYLS, Method: PREINCUBATION): active; positive
